Reference: a melting point compilation (Tetko et al.)

melting point [°C]	Structure (SMILES)
352 to 354	Nc1ccc(-c2nc3ccccc3[nH]2)cn1
114 to 116	CC(C)(C)C(N)=S
125 to 127	NC(=O)CC1CC1
149 to 151	Cc1c(C(=O)O)cnn1-c1ccccc1Cl
210 to 212	O=C(O)CNC1CCCC1
98 to 100	CCC(=O)c1ccc(Cl)c(Cl)c1O
129 to 131	O=C(O)c1cc[nH]c1
82 to 84	CC(C)(Br)C(=O)Nc1ccccc1
161 to 163	O=C(O)C1CCCN1C(=O)Nc1ccccc1 (configuration not stated)
84 to 86	NC(=O)C(O)C1CCOC1 (configuration not stated)
117 to 119	COc1cc(NC(=O)CCCl)cc(OC)c1OC
133 to 135	Cc1cnoc1C(=O)O
144 to 146	O=C(O)c1csc(-c2cccc3ccccc23)n1
144 to 146	O=C(O)c1ccc(Oc2ccccc2Cl)cc1
269 to 271	O=C(O)c1cc(-c2ccco2)nc2onc(-c3ccco3)c12
118 to 120	O=S(=O)(c1ccc(Cl)c(N=C=S)c1)N1CCOCC1
40 to 42	CCCS(=O)(=O)NC(C(=O)OCC)C(=O)OCC
170 to 172	COCCNc1nc2ccccc2[nH]1
91 to 93	Cn1cc([N+](=O)[O-])cn1
67 to 69	CC(C)c1ccc(C2CC2C(=O)O)cc1 (configuration not stated)
140 to 142	CCN1N=C(c2ccccc2)CC1=O
138 to 140	CC(Oc1ccc(O)cc1)C(N)=O (configuration not stated)
122 to 124	CCn1cc(C(=O)O)c(C(C)C)n1
176 to 178	CC(=O)c1ccc2c(c1)CC(=O)N2C
52 to 54	CC(C)c1cc(N)n(C(C)C)n1
84 to 86	O=Cc1ccc([N+](=O)[O-])cc1F

melting point [°C]	Structure (SMILES)
219 to 221	Cc1cc(C(=O)O)c(N)cc1F
76 to 78	Nc1ccccc1C(=O)NCc1ccco1
328 to 330	O=[N+]([O-])c1ccc(Cl)c(S(=O)(=O)Nc2nc3ccc(Cl)cc3s2)c1
129 to 131	CCCCCCCCCC(=O)N[C@@H](CCC(N)=O)C(=O)O
172 to 174	COc1ccc(S(=O)(=O)Nc2nccs2)cc1
128 to 132	O=C(O)c1cc(Cl)cc(Cl)c1OC(F)F
129 to 131	Brc1cccc(-c2ncc[nH]2)c1
74 to 76	C=CCNc1nc(-c2ccccc2)cs1
166 to 168	COC(=O)c1c(C(=O)OC)c(-c2cccc(N)c2)n2c1CCC2
244 to 246	Cc1cc(C)n2ncc(C(=O)NCC(=O)O)c2n1
139 to 141	CC1=NOC(=O)C1CCC(=O)O (configuration not stated)
159 to 161	Nc1nnc(SCc2ccccc2)s1
139 to 141	Nc1nc(-c2cccs2)c(-c2cccs2)s1
151 to 153	CC(C)(C)OC(=O)NC(CCC(=O)O)c1ccccc1 (configuration not stated)
198 to 200	O=c1[nH]c(-c2cccc(F)c2)cs1
227 to 229	Cc1c(C(=O)O)oc2c1C(=O)CCC2
83 to 85	Cc1c(S(=O)(=O)Cl)sc2cc(Cl)ccc12
179 to 181	Nc1noc(-c2ccoc2)n1
122 to 124	Cc1cc(S(C)(=O)=O)c(C)c(S(=O)(=O)Cl)c1
126 to 128	O=C(O)Cc1ccc(Cl)cc1Br
97 to 99	Cc1csc(=O)n1CCCC(=O)O
275 to 277	CSc1nc2nc(C)c(CC(=O)O)c(C)n2n1
97 to 99	N#Cc1ccc(Oc2ccccc2O)c(F)c1
79 to 81	N#CCOc1ccccc1C=O
63 to 65	CCOc1ccc(N)cc1Cl
148 to 150	O=C(O)C=Cc1ccccc1OCc1cccc(Br)c1

melting point [°C]	Structure (SMILES)
64 to 66	Nc1cccc(-c2ccc3c(c2)CCO3)c1
82 to 84	Nc1cccc(C(=O)N2CCOCC2)c1
71 to 80	CCOC(=O)C(C(C)=O)C1CCS(=O)(=O)C1 (configuration not stated)
104 to 106	CN(C)c1ccc(C=O)cc1[N+](=O)[O-]
134 to 136	Nc1cc(S(N)(=O)=O)ccc1F
194 to 196	Nc1cccc(S(=O)(=O)Nc2cn[nH]c2)c1
96 to 98	O=C(O)C1CC1c1ccc(OC(F)(F)F)cc1 (configuration not stated)
74 to 76	COc1ccc(F)cc1C(=O)CBr
113 to 115	O=Cc1ccccc1-n1cncn1
171 to 173	NNC(=O)c1cc2ccccc2o1
204 to 206	O=c1cc(CO)nc2ccc(Br)cn12
139 to 141	CC(=O)c1ccc(NC(=O)CI)cc1
176 to 178	Nc1ccc(NS(=O)(=O)c2ccc3c(c2)OCCO3)cc1
92 to 94	O=c1c(Cl)c(Cl)cnn1-c1cccc(C(F)(F)F)c1
244 to 246	CCC(NC(=O)c1ccccc1)C(N)=S (configuration not stated)
151 to 153	COc1ccc(S(N)(=O)=O)c(OC)c1C(=O)O
114 to 116	Cn1cnnc1-c1ccccc1
239 to 241	NNC(=O)c1sc2cc(F)ccc2c1Cl
241 to 243	COc1cc(N)ccc1S(N)(=O)=O
144 to 146	O=C(O)c1cccc(OCc2cccc(Cl)c2)c1
167 to 169	CC(C)NS(=O)(=O)c1ccc(F)c(C(=O)O)c1
193 to 195	Cc1ccc(-c2ocnc2C(=O)O)cc1
173 to 175	Nc1cccc(C=CC(=O)O)c1
133 to 135	COCCn1c(S)nnc1-c1ccccc1
262 to 264	Cc1cc(C(=O)O)c2c(C)nn(C)c2n1
193 to 195	O=C(Nc1ccncc1)OCC(F)(F)F

melting point [°C]	Structure (SMILES)
49 to 51	Cc1cc2cc(Cl)cc(Cl)c2[nH]1
274 to 276	O=C1Nc2c(F)ccc(Br)c2C1=O
178 to 180	Cc1ccccc1Sc1ccc(C(=O)O)cc1
230 to 232	O=c1[nH]c(CCl)nc2scc(-c3ccco3)c12
125 to 127	CC(C)c1ccc(S(=O)(=O)N2CCNCC2)cc1
147 to 149	CC(C)(C)OC(=O)c1cccc(C(=O)O)c1
179 to 181	Cc1nc(-c2ccc(Br)cc2Cl)n[nH]1
79 to 81	O=C(O)C1CCCN1S(=O)(=O)c1ccccc1 (configuration not stated)
55 to 57	O=S(=O)(Cl)c1ccc(OCC(F)(F)F)nc1
210 to 212	COc1ccc(N)c(OC)n1
147 to 149	Cc1cc(N)nc(C)c1Br
107 to 109	O=Cc1cnc(-c2ccsc2)s1
109 to 111	CNS(=O)(=O)c1ccc(C(C)=O)cc1
87 to 89	Cc1ccc(-c2ccc(C=O)s2)cc1
86 to 88	CCOC(=O)c1c(CCCO)cnc2nc(C(=O)OC)nn12
164 to 166	COc1ccc(S(=O)(=O)N2CCC(=NO)CC2)cc1
182 to 184	CC(=O)c1cc(F)ccc1-n1ccnc1
163 to 165	Cc1cnn(Cc2cc(C(=O)O)no2)c1
73 to 75	O=Cc1ccc(N2CCCCC2)s1
160 to 162	O=C(O)c1cnc(-c2ccc(C(F)(F)F)cc2)s1
342 to 344	Cc1c(C(=O)O)sc2nc(Cc3ccccc3)[nH]c(=O)c12
172 to 174	CCCCn1c(=O)[nH]c(=O)c2c1nc(CCl)n2CC
69 to 71	Cn1cc(-c2cccc(CN)c2)cn1

Structure (SMILES)	melting point [°C]
Nc1ccc(CCN2CCOCC2)cc1	87 to 89
